From US20090181933A1, “USE OF STEROIDS TO TREAT PERSONS SUFFERING FROM OCULAR DISORDERS” (priority 2008, published 2009)

What was measured:
[1] = system: glucocorticoid induced ocular hypertension; assay: Topical anecortave acetate eye drops in patients with glucocorticoid induced ocular hypertension; format: in vivo, human (patients); conditions: 1% eye drops topically three times per day for up to 12 weeks, glucocorticoid continued, reduced from 29 mm Hg
Method: Patients ([…]) with documented glucocorticoid induced ocular hypertension were treated topically with 1% anecortave acetate eye drops three times per day for up to 12 weeks. The patients continued to receive their glucocorticoid medication.

[2] = system: IOP of rabbits receiving subTenon's dexamethasone acetate; assay: Rabbit dexamethasone acetate-induced IOP elevation, topical ocular dosing; format: in vivo; conditions: for IOP change versus vehicle treated group: weekly subTenon's dexamethasone acetate 1 mg/kg
Method: Three groups of rabbits received weekly subTenon's injections of dexamethasone acetate (1 mg/kg) for 4 weeks. After two weeks, the […] of all three groups measured approximately 5 mm Hg. The rabbits were then treated with vehicle, 0.1% anecortave acetate, a 1% anecortave acetate by topical ocular dosing three times a day for the remaining 2 weeks. The IOP continued to increase in the vehicle treated group.

For `CC(=O)OCC(=O)[C@@]1(O)CC[C@H]2[C@@H]3CCC4=CC(=O)CC[C@]4(C)C3=CC[C@@]21C` [anecortave acetate, 4,9(11)-pregnadien-17α,21-diol-3,20dione-21-acetate], the “IOP after anecortave acetate treatment” value [1] was 19-22 mm Hg, the “IOP change versus vehicle treated group” value ([2]; 0.1% topical ocular three times a day for 2 weeks) was “significantly lowered” and the “IOP change versus vehicle treated group” value ([2]; 1% topical ocular three times a day for 2 weeks) was “significantly lowered”.

With `CC(=O)OCC(=O)[C@@]1(O)[C@H](C)C[C@H]2[C@@H]3CCC4=CC(=O)C=C[C@]4(C)[C@@]3(F)[C@@H](O)C[C@@]21C` [dexamethasone acetate] the “IOPs (printed TOPs) after two weeks of dexamethasone acetate” value ([2]; weekly subTenon's injections 1 mg/kg, after two weeks, all three groups) was “approximately 5 mm Hg”.
